{"source": "patent US9351986B2", "about": "“Calicheamicin derivative-carrier conjugates” (priority 2002, dated 2016)", "system": "Fc-CD22", "sequence (P20273 20-416 limits assumed)": "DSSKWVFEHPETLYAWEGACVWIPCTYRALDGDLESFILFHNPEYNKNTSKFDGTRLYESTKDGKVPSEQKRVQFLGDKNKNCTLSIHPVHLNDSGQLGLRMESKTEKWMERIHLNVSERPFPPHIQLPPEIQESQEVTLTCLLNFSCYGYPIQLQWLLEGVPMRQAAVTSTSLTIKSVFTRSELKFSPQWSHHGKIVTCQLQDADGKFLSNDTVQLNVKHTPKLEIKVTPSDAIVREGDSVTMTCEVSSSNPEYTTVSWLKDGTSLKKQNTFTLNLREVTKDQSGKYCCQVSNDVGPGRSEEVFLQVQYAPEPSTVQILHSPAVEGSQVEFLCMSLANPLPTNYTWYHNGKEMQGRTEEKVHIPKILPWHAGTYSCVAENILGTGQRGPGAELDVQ", "assay": "BIACORE blocking of murine anti-CD22 mAbs by G5/44 on immobilized Fc-CD22", "type": "binding", "settings": "Fc-CD22 saturated with G5/44 (100 μg/ml), before murine mAb", "procedure": "Whether or not G5/44 can inhibit the binding of murine mAbs of known specificity to CD22 was evaluated by BIACORE™ analysis using Fc-CD22 immobilized to a BIACORE™ CM5 chip. The surface plasmon resonance units (RU) obtained with and without prior saturation of the immobilized Fc-CD22 with G5/44 were compared. Biomolecular interaction analysis was performed using a BIACORE™ 2000. Antibodies were passed over a blank control surface (flowcell 1, serves as a control, no protein was coupled) and the test surface of Fc-CD22 (flowcell 2) immobilized on a CM5 sensor chip via amine coupling chemistry to a level of 9,042 RU. The resultant sensorgram was the response (RU) on flowcell 2 minus the response (RU) on flowcell 1. A second sensorgram was obtained by first saturating the flowcells with G5/44 (100 μg/ml) before the introduction of murine mAbs against CD22 that had been previously characterized for their binding. Immediately upon measuring the G5/44 response, murine anti-CD22 mAbs were individually perfused without removing G544. The second combined response generated due to the binding of murine anti-CD22 mAb to G5/44-coated CD22 was also recorded. If the murine antibody bound to CD22 at sites unrelated to those occupied by G5/44, then the combined responses would be additive. […]"}
{"substance": "5/44: murine anti-CD22 monoclonal antibody, the murine parent of G5/44", "values": [{"measurement": "Response 1 with G544", "value": 725.1, "unit": "RU"}]}
